The record followed here is patent US9109004B2, “Progesterone receptor antagonists” (Bayer Intellectual Property GmbH, priority 2010, dated 2015).

SMILES strings stand for the structures.

The target in the experiment is T1, human progesterone receptor A (Homo sapiens, UniProt P06401).
T1 construct: expressed in transfected cells; host or cells: SK-N-MC human neuroblastoma cells, stably transfected
T1 sequence (P06401 1-769 isoform P06401-2): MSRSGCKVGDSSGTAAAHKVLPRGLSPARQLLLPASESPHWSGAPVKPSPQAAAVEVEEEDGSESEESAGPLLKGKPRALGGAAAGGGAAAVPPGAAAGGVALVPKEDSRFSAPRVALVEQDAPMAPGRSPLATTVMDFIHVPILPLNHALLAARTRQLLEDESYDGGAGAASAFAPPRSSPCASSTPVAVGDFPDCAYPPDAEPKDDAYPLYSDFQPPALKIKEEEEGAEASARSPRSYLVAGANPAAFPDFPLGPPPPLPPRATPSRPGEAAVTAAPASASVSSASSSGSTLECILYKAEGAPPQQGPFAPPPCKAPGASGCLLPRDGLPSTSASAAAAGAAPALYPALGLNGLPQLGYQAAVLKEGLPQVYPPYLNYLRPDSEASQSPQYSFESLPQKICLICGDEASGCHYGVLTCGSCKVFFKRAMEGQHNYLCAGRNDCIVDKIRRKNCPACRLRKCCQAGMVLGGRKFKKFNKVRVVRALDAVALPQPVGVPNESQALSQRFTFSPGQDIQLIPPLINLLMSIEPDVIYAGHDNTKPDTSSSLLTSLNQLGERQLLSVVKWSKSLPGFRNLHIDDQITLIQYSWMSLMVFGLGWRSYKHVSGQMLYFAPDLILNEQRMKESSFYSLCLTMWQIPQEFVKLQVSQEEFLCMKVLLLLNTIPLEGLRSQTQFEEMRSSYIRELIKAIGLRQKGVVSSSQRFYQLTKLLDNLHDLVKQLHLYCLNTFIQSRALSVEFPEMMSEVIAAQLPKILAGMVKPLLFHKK
The experiment is described as follows: Progesterone-receptor-antagonistic action in stably transfected SK-N-MC cells, MTV-LUC reporter (PR-A). Format: cell-based. The conditions noted are these: antagonistic potency vs 0.1 nmol/l promegestone, 24 hours, luciferase. The protocol:
Progesterone-Receptor-Antagonistic Action in Stable Transfectants of Human Neuroblastoma Cells (SK-N-MC Cells) with the Human Progesterone A or Progesterone B Receptor and an MTV-LUC Reporter Construct
SK-N-MC cells (human neuroblastoma cells) that have been stably transfected with plasmids that express the human progesterone receptor B (pRChPR-B-neo) or the human progesterone receptor A (pRChPR-A-neo) and a reporter construct (pMMTV-LUC), were incubated for 24 hours either in the absence (negative control) or in the presence of increasing amounts of the particular test compound (0.01 nmol/l, 0.1 nmol/l, 1 nmol/l, 10 nmol/l, 100 nmol/l and 1 μmol/l), to determine the agonistic efficacy. As positive control of reporter gene induction, the cells were treated with the synthetic gestagen promegestone (0.01 nmol/l, 0.1 nmol/l, 1 nmol/l, 10 nmol/l, 100 nmol/l and 1 μmol/l). For determination of the antagonistic activity, the cells were treated with 0.1 nmol/l promegestone and additionally with increasing amounts of the particular test compound (0.01 nmol/l, 0.1 nmol/l, 1 nmol/l, 10 nmol/l, 100 nmol/l and 1 μmol/l). The activity of the reporter gene LUC (LUC=luciferase) was determined in the cell lysates and was measured as RLU (relative light units). All measured values are given as % efficacy and as EC50 or IC50 concentrations.
Usually IC50 stands for the midpoint of a concentration-inhibition curve. The low end stands for inhibition by little substance, the high end for a need for much substance. Regarding `C[C@]12C[C@H](c3ccc(C(=O)Nc4ccncc4)cc3)C3=C4CCC(=O)C=C4CC[C@H]3[C@@H]1CC[C@@]2(O)C(F)(F)C(F)(F)F` [Example 14, 4-[(11β,17β)-17-hydroxy-3-oxo-17-(pentafluoroethyl)estra-4,9-dien-11-yl]-N-(pyridin-4-yl)benzamide], half-maximal inhibition (IC50) was put at 0.42 nM.

`C[C@]12C[C@H](c3ccc(C(=O)N4CCN(CCN5CCCC5)CC4)cc3)C3=C4CCC(=O)C=C4CC[C@H]3[C@@H]1CC[C@@]2(O)C(F)(F)C(F)(F)F` [Example 48, (11β,17β)-17-hydroxy-17-(pentafluoroethyl)-11-[4-({4-[2-(pyrrolidin-1-yl)ethyl]piperazin-1-yl}carbonyl)phenyl]estra-4,9-dien-3-one] had an IC50 of 667 nM.

On to `CN(CCc1cccnc1)C(=O)c1ccc([C@H]2C[C@@]3(C)[C@@H](CC[C@@]3(O)C(F)(F)C(F)(F)F)[C@@H]3CCC4=CC(=O)CCC4=C32)cc1` [Example 72, 4-[(11β,17β)-17-hydroxy-3-oxo-17-(pentafluoroethyl)estra-4,9-dien-11-yl]-N-methyl-N-[2-(pyridin-3-yl)ethyl]benzamide], for which the IC50 came to 1.4 nM.

`C[C@]12C[C@H](c3ccc(C(=O)Nc4ccccc4C(=O)O)cc3)C3=C4CCC(=O)C=C4CC[C@H]3[C@@H]1CC[C@@]2(O)C(F)(F)C(F)(F)F` [Example 76, 2-({4-[(11β,17β)-17-Hydroxy-3-oxo-17-(pentafluoroethyl)estra-4,9-dien-11-yl]benzoyl}amino)benzoic acid] registered an IC50 of 0.5 nM.

The compound `CN(C)C(=O)N1CCN(C(=O)c2ccc([C@H]3C[C@@]4(C)[C@@H](CC[C@@]4(O)C(F)(F)C(F)(F)F)[C@@H]4CCC5=CC(=O)CCC5=C43)cc2)CC1` [Example 66, 4-{4-[(11β,17β)-17-hydroxy-3-oxo-17-(pentafluoroethyl)estra-4,9-dien-11-yl]benzoyl}-N,N-dimethylpiperazine-1-carboxamide] showed an IC50 of 35 nM.

`CC(=O)Nc1ccc(NC(=O)c2ccc([C@H]3C[C@@]4(C)[C@@H](CC[C@@]4(O)C(F)(F)C(F)(F)F)[C@@H]4CCC5=CC(=O)CCC5=C43)cc2)cc1` [Example 52, N-(4-acetamidophenyl)-4-[(11β,17β)-17-hydroxy-3-oxo-17-(pentafluoroethyl)estra-4,9-dien-11-yl]benzamide]: the IC50 was found to be 0.71 nM.

`C[C@]12C[C@H](c3ccc(C(=O)NCCc4ccccc4)cc3)C3=C4CCC(=O)C=C4CC[C@H]3[C@@H]1CC[C@@]2(O)C(F)(F)C(F)(F)F` [Example 16, 4-[(11β,17β)-17-hydroxy-3-oxo-17-(pentafluoroethyl)estra-4,9-dien-11-yl]-N-(2-phenylethyl)benzamide] displayed a concentration for half-maximal inhibition (IC50) of 0.67 nM. This IC50 and that of the compound before are within 1.5-fold of each other.

Turning to `COC(=O)c1ccc(NC(=O)c2ccc([C@H]3C[C@@]4(C)[C@@H](CC[C@@]4(O)C(F)(F)C(F)(F)F)[C@@H]4CCC5=CC(=O)CCC5=C43)cc2)cc1` [Example 38, methyl-4-({4-[(11β,17β)-17-hydroxy-3-oxo-17-(pentafluoroethyl)estra-4,9-dien-11-yl]benzoyl}amino)benzoate], the IC50 turned out to be 1.88 nM.

As to `C[C@]12C[C@H](c3ccc(C(=O)NCc4ccc(Cl)cc4)cc3)C3=C4CCC(=O)C=C4CC[C@H]3[C@@H]1CC[C@@]2(O)C(F)(F)C(F)(F)F` [Example 36, N-(4-chlorobenzyl)-4-[(11β,17β)-17-hydroxy-3-oxo-17-(pentafluoroethyl)estra-4,9-dien-11-yl]benzamide], 20 nM corresponded to half-maximal inhibition (IC50).

`C[C@]12C[C@H](c3ccc(C(=O)NCc4ccccn4)cc3)C3=C4CCC(=O)C=C4CC[C@H]3[C@@H]1CC[C@@]2(O)C(F)(F)C(F)(F)F` [Example 20, 4-[(11β,17β)-17-hydroxy-3-oxo-17-(pentafluoroethyl)estra-4,9-dien-11-yl]-N-(pyridin-2-ylmethyl)benzamide] came in with an IC50 of 3.8 nM.

As to `C[C@]12C[C@H](c3ccc(C(=O)N4CCN(Cc5cccnc5)CC4)cc3)C3=C4CCC(=O)C=C4CC[C@H]3[C@@H]1CC[C@@]2(O)C(F)(F)C(F)(F)F` [Example 69, (11β,17β)-17-hydroxy-17-(pentafluoroethyl)-11-(4-{[4-(pyridin-3-ylmethyl)piperazin-1-yl]carbonyl}phenyl)estra-4,9-dien-3-one], the IC50 was 7.3 nM.

On to `CN1CCN(CCNC(=O)c2ccc([C@H]3C[C@@]4(C)[C@@H](CC[C@@]4(O)C(F)(F)C(F)(F)F)[C@@H]4CCC5=CC(=O)CCC5=C43)cc2)CC1` [Example 62, 4-[(11β,17β)-17-hydroxy-3-oxo-17-(pentafluoroethyl)estra-4,9-dien-11-yl]-N-[2-(4-methylpiperazin-1-yl)ethyl]benzamide], for which inhibition was half-maximal at 94 nM (IC50).

In turn, `COc1cccc(CNC(=O)c2ccc([C@H]3C[C@@]4(C)[C@@H](CC[C@@]4(O)C(F)(F)C(F)(F)F)[C@@H]4CCC5=CC(=O)CCC5=C43)cc2)c1` [Example 53, 4-[(11β,17β)-17-hydroxy-3-oxo-17-(pentafluoroethyl)estra-4,9-dien-11-yl]-N-(3-methoxybenzyl)benzamide] came in with an IC50 of 29 nM. Compared with the last compound, the IC50 is about 3.2-fold lower.

`C[C@]12C[C@H](c3ccc(C(=O)NCCCN4CCOCC4)cc3)C3=C4CCC(=O)C=C4CC[C@H]3[C@@H]1CC[C@@]2(O)C(F)(F)C(F)(F)F` [Example 13, 4-[(11β,17β)-17-hydroxy-3-oxo-17-(pentafluoroethyl)estra-4,9-dien-11-yl]-N-[3-(morpholin-4-yl)propyl]benzamide]: the IC50 came to 24 nM.

`C[C@]12C[C@H](c3ccc(C(=O)Nc4ccc(Cl)cc4)cc3)C3=C4CCC(=O)C=C4CC[C@H]3[C@@H]1CC[C@@]2(O)C(F)(F)C(F)(F)F` [Example 26, N-(4-chlorophenyl)-4-[(11β,17β)-17-hydroxy-3-oxo-17-(pentafluoroethyl)estra-4,9-dien-11-yl]benzamide] came in with a concentration for half-maximal inhibition (IC50) of 28 nM.

For `C[C@]12C[C@H](c3ccc(C(=O)N4CCN(c5ccccc5)CC4)cc3)C3=C4CCC(=O)C=C4CC[C@H]3[C@@H]1CC[C@@]2(O)C(F)(F)C(F)(F)F` [Example 30, (11β,17β)-17-hydroxy-17-(pentafluoroethyl)-11-{4-[(4-phenylpiperazin-1-yl)carbonyl]phenyl}estra-4,9-dien-3-one], the IC50 was 7.2 nM.

The compound `C[C@]12C[C@H](c3ccc(C(=O)NC4CC4)cc3)C3=C4CCC(=O)C=C4CC[C@H]3[C@@H]1CC[C@@]2(O)C(F)(F)C(F)(F)F` [Example 42, N-cyclopropyl-4-[(11β,17β)-17-hydroxy-3-oxo-17-(pentafluoroethyl)estra-4,9-dien-11-yl]benzamide] returned an IC50 of 7.3 nM.

With `C[C@]12C[C@H](c3ccc(C(=O)NCCN4CCCC4)cc3)C3=C4CCC(=O)C=C4CC[C@H]3[C@@H]1CC[C@@]2(O)C(F)(F)C(F)(F)F` [Example 54, 4-[(11β,17β)-17-hydroxy-3-oxo-17-(pentafluoroethyl)estra-4,9-dien-11-yl]-N-[2-(pyrrolidin-1-yl)ethyl]benzamide], the IC50 is 21 nM.
